Activity calls are given as the source filed them.
Columns and labels:
[1] = biological target: T1, Zinc finger protein mex-5 (Caenorhabditis elegans, UniProt Q9XUB2); experiment: potency of MEX-5 RNA-binding blockers – biochemical, C. elegans, fluorescence polarization, dose response (AID 1960)
T1 sequence (Q9XUB2 whole entry): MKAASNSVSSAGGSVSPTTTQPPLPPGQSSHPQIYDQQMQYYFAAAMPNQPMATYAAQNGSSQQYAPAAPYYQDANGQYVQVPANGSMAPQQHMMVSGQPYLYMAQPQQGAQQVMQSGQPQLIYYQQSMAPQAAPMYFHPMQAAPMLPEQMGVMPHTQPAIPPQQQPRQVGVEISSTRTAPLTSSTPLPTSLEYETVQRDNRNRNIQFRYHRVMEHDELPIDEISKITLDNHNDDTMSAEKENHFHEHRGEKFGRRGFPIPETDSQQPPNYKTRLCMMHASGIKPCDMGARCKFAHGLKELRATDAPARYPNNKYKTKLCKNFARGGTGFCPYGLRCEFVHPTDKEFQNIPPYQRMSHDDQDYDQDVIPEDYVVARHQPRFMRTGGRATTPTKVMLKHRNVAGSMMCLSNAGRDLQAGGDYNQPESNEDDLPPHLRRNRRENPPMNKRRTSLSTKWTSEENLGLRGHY

Genome polyprotein = Genome polyprotein (dengue virus type 2, UniProt P29990); experiment: flavivirus cap methylation enzyme inhibition – biochemical, confirmation dose response, primary screen (AID 588689); format: functional
[2] = biological target: T2, RNA-binding protein pos-1 (Caenorhabditis elegans, UniProt G5EF15); experiment: disruptors of C. elegans POS-1 RNA interaction – biochemical, fluorescence polarization, dose response (AID 1964);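 further: purified POS-1 fused to maltose binding protein made in E. coli; potency of compounds blocking POS-1 binding to fluorescent RNA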
T2 sequence (G5EF15 whole entry): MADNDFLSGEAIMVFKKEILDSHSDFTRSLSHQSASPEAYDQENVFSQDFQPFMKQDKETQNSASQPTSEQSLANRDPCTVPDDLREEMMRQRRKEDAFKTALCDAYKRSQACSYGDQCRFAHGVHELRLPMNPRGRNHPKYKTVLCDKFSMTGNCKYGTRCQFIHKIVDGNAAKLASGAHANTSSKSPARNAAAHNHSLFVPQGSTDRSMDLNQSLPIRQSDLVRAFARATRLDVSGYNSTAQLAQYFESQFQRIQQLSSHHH

[3] = biological target: T3, Small ubiquitin-related modifier 1 (Homo sapiens, UniProt P63165); experiment: SUMO1 protein-protein binding blockers, potency – biochemical, FRET, dose response (AID 624383); format: functional; conditions: read-out: IC50_Mean
[4] = biological target: T3, Small ubiquitin-related modifier 1; experiment: SUMO1 protein interaction blockers, potency – biochemical, fluorescence polarization, uHTS hits, dose response (AID 624382); format: functional; conditions: read-out: IC50_Mean
[5] = biological target: T4, Rac GTPase-activating protein 1 (Homo sapiens, UniProt Q9H0H5); experiment: blockers of MgcRacGAP-driven Rac1 GTP hydrolysis – biochemical, ADP Hunter fluorescence, primary and confirmatory, confirmation (AID 624330); format: functional
T4 sequence (Q9H0H5 whole entry): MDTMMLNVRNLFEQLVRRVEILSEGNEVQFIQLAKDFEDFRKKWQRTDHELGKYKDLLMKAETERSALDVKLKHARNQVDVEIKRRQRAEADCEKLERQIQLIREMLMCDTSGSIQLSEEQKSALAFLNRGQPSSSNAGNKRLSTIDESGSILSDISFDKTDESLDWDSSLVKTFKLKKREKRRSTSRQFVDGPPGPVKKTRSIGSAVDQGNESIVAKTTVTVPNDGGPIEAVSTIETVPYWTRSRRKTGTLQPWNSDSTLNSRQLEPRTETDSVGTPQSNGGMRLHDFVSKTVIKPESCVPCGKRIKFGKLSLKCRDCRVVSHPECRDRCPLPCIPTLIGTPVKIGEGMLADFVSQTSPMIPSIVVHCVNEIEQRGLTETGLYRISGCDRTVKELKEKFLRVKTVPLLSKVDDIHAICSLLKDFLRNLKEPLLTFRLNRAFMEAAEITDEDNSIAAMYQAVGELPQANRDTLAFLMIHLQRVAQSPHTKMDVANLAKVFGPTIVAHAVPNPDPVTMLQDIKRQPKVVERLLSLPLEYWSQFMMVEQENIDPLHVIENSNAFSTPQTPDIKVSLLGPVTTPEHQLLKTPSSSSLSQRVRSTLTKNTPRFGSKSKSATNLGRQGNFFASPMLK

Vero = experiment: viability of Vero cells under compound – cytotoxicity control for flavivirus capping enzyme inhibitors (AID 588742); format: functional; conditions: Chlorocebus sabaeus
[6] = biological target: T5, Polyadenylate-binding protein 1 (Homo sapiens, UniProt P11940); experiment: MLLE domain peptide-binding blockers, IC50 – biochemical, fluorescence polarization, FITC-PAM2 peptide, dose response (AID 602259); format: functional; conditions: read-out: IC50_Mean
[7] = biological target: T5, Polyadenylate-binding protein 1; experiment: MLLE binding blockers, Cy5 peptide tracer – biochemical, fluorescence polarization, Cy5-PAM2 peptide, secondary, miRNA deadenylation inhibitor project, dose response (AID 602260); format: functional; conditions: read-out: IC50_Mean
ORF 73 = ORF 73 (Human herpesvirus 8, UniProt O40947); experiment: KSHV LANA DNA-binding disruption – biochemical, fluorescence polarization, cherry-picked samples, dose response (AID 504725); parameters: species or system Human gammaherpesvirus 8;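 further: fluorescence polarization of a labeled DNA duplex reporting LANA DNA binding; potency is for inhibitors that block LANA binding to the DNA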
cells [8] = format: functional, cell-based
Jurkat [9] = experiment: SAR Analysis of small molecule inhibitors of T-cell specific antigen receptor-induced NF-kB activation in a Jurkat cell line using a luminescence assay - Set 2. [Related pubchem assays (depositor defined):AID435003, AID435012, AID465]; format: functional, cell-based; conditions: Homo sapiens
[10] = loss of viability in HepG2 cells – cell-based, CellTiter-Glo, cherry-picked, cytotoxicity control for Shn3 inhibitor project, dose response (AID 624134); format: functional
[11] = NIH-3T3 fibroblast cytotoxicity, dose response, cytotoxicity control, cell-based, fluorescence, Alamar Blue, secondary assay (AID 2327); format: functional;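 further: NIH-3T3 mouse fibroblasts cultured with fluconazole at 8 µg/mL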
[12] = fluconazole-exposed Candida albicans growth modulators – fluorescence, retest, confirmation (AID 2467); format: functional, cell-based
Exodeoxyribonuclease V = Exodeoxyribonuclease V (Escherichia coli (strain K12), UniProt P04993+P07648+P08394); experiment: RecBCD inhibition via phage-restricted bacterial growth – absorbance, V66 E. coli, mutant T4 phage, counter-screen for AddAB inhibitor project, dose response (AID 492957); format: functional, cell-based, Escherichia coli str. K-12 substr. MG1655
INS1 = experiment: INS-1E survival protection against cytokine death – cell-based, luminescence, retest, dose response (AID 449756); format: functional; conditions: Rattus norvegicus;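 further: cell death triggered by IL-1 beta plus TNF-alpha plus IFN-gamma mixture; protective hits raise ATP signal compared with cytokine alone wells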
cells [13] = format: functional, cell-based; remark: listed apart in the source
[14] = Counterscreen for AddAB inhibitors: absorbance-based bacterial cell-based high throughput dose response assay for inhibitors of bacterial viability. [Related pubchem assays (depositor defined):AID435030, AID449728, AID449731, AID488942, AID488955, AID488956]; format: functional
HEK293 [15] = experiment: HEK293T cell viability loss, resazurin readout – resazurin fluorescence, cytotoxicity control for NF-kB activator project, SAR follow-up (AID 493251); format: functional, cell-based
[16] = non-specific 3'UTR reporter inhibition in Clone20-Shn3RL – cell-based, Renilla luciferase, cherry-picked, counter-screen for Shn3 inhibitor project, dose response (AID 624133); format: functional
HEK293 [17] = experiment: SAR Analysis of small molecule inhibitors of T-cell specific antigen receptor-induced NF-kB activation in a HEK-293T cell line using a luminescence assay - Set 2. [Related pubchem assays (depositor defined):AID435003, AID435012, AID489026]; format: functional, cell-based; conditions: Homo sapiens
Nonstructural protein 1 = Nonstructural protein 1 (Influenza A virus, UniProt Q194T2); format: functional, Influenza A virus (A/California/07/2009(H1N1))
[18] = Trypanosoma cruzi growth suppression in host cells – NIH3T3 host cells, beta-gal luminescence, confirmation (AID 2044); format: functional, cell-based;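 further: intracellular parasites grown in NIH/3T3 mouse fibroblasts as host cells; luminescent beta-galactosidase reporter signal from transgenic T. cruzi replicating inside host cells; inhibitors lower the luminescence signal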
HEK293 [19] = experiment: SAR Analysis of small molecule inhibitors of T-cell specific antigen receptor-induced NF-kB activation in a HEK-293T cell line using a luminescence assay. [Related pubchem assays (depositor defined):AID435003, AID435012, AID489026]; format: functional, cell-based; conditions: Homo sapiens
[20] = biological target: Heat shock protein HSP 90-alpha (Homo sapiens, UniProt P07900); format: functional, organism-based
[21] = biological target: ATP-dependent molecular chaperone HSP82 (Candida albicans (strain WO-1) (Yeast), UniProt C4YTQ8); experiment: steroid-induced GRE reporter decrease in yeast – S. cerevisiae, luminescence, Hsp90 inhibitor project, dose response (AID 2400); format: functional, cell-based;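 further: beta-galactosidase luminescence from glucocorticoid response element reporter as proxy for Hsp90 function; inhibitor potency where signal loss means Hsp90 inhibition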
Jurkat [22] = experiment: SAR Analysis of small molecule inhibitors of T-cell specific antigen receptor-induced NF-kB activation in a Jurkat cell line using a luminescence assay. [Related pubchem assays (depositor defined):AID435003, AID435012, AID465]; format: functional, cell-based; conditions: Homo sapiens
[23] = biological target: T6, Serine/threonine-protein phosphatase (Candida dubliniensis (strain CD36 / CBS 7987 / NCPF 3949 / NRRLY-17841) (Yeast), UniProt B9W6M3); experiment: blockers of CaCl2-induced CDRE-lacZ signaling – S. cerevisiae, luminescence, secondary, dose response (AID 2388); format: functional, cell-based;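 further: yeast reporter cells carrying a calcineurin-responsive lacZ construct stimulated with calcium chloride; luminescent beta-galactosidase reporter signal in whole cells rather than isolated phosphatase activity; potency for inhibition where a drop in reporter signal means calcineurin blockade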
T6 sequence (B9W6M3 whole entry): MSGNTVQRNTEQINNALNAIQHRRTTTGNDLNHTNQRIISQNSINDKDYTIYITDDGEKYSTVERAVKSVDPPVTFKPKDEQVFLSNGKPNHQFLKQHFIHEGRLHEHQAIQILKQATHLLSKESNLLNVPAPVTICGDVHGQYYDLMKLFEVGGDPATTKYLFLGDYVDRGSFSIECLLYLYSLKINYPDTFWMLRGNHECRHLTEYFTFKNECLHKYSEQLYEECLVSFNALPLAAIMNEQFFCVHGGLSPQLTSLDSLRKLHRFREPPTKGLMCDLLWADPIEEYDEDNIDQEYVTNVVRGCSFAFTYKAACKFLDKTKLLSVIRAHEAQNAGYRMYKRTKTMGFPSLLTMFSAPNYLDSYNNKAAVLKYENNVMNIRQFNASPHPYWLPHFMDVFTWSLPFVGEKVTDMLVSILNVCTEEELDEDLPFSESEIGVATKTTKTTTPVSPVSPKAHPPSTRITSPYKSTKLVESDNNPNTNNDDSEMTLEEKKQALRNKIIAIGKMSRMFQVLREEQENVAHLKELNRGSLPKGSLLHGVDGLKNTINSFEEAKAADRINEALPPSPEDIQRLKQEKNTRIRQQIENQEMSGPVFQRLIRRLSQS

[24] = NIH3T3 cell viability loss – ATP luminescence, mouse fibroblasts, counter-screen, dose response (AID 2010); format: functional, cell-based;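 further: cells exposed to compound for about 90 hours before reading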
[25] = reduction of Shn3 3'UTR-driven luciferase in osteoblasts – cell-based, Clone20 osteoblasts, firefly luciferase, cherry-picked, dose response (AID 624132); format: functional;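 further: firefly luciferase luminescence from reporter carrying the Shn3 3'UTR in osteoblasts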

T5 sequence (P11940 whole entry, the tested form may be a part): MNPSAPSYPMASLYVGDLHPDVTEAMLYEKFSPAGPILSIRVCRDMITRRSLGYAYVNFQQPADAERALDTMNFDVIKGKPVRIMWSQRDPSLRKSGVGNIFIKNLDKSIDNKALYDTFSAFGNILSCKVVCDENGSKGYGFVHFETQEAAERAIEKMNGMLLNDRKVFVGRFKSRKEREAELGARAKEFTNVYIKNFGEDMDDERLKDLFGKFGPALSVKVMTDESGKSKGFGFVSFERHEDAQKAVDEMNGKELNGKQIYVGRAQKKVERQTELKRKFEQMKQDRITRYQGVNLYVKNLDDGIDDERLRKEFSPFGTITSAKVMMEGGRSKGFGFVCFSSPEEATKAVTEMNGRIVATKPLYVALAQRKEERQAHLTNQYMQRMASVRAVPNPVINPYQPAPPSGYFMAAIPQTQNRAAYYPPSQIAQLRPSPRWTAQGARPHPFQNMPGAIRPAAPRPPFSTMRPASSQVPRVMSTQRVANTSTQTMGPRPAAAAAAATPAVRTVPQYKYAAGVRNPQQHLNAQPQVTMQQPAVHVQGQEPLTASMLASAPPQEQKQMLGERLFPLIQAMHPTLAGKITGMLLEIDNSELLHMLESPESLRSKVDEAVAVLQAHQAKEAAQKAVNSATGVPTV
T3 sequence (P63165 whole entry): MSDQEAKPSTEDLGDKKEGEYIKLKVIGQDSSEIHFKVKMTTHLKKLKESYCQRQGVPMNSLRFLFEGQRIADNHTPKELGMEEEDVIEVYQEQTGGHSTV
Sequence of Exodeoxyribonuclease V (P04993 whole entry): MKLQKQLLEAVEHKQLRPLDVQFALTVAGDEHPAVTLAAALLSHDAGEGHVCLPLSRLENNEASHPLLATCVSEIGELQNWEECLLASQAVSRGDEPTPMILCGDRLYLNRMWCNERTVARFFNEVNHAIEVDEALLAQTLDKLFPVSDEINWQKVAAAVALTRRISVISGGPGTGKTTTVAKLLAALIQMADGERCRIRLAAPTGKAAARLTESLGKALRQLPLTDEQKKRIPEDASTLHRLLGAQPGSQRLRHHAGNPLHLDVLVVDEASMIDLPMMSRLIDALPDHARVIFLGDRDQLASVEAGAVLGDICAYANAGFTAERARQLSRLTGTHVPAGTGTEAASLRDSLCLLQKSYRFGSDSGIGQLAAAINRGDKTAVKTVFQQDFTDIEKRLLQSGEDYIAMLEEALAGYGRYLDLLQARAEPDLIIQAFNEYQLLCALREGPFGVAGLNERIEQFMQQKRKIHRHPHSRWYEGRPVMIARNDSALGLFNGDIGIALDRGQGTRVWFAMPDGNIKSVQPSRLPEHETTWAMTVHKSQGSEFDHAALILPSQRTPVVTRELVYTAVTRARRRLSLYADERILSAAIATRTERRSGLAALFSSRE
Sequence of Exodeoxyribonuclease V (P07648 whole entry): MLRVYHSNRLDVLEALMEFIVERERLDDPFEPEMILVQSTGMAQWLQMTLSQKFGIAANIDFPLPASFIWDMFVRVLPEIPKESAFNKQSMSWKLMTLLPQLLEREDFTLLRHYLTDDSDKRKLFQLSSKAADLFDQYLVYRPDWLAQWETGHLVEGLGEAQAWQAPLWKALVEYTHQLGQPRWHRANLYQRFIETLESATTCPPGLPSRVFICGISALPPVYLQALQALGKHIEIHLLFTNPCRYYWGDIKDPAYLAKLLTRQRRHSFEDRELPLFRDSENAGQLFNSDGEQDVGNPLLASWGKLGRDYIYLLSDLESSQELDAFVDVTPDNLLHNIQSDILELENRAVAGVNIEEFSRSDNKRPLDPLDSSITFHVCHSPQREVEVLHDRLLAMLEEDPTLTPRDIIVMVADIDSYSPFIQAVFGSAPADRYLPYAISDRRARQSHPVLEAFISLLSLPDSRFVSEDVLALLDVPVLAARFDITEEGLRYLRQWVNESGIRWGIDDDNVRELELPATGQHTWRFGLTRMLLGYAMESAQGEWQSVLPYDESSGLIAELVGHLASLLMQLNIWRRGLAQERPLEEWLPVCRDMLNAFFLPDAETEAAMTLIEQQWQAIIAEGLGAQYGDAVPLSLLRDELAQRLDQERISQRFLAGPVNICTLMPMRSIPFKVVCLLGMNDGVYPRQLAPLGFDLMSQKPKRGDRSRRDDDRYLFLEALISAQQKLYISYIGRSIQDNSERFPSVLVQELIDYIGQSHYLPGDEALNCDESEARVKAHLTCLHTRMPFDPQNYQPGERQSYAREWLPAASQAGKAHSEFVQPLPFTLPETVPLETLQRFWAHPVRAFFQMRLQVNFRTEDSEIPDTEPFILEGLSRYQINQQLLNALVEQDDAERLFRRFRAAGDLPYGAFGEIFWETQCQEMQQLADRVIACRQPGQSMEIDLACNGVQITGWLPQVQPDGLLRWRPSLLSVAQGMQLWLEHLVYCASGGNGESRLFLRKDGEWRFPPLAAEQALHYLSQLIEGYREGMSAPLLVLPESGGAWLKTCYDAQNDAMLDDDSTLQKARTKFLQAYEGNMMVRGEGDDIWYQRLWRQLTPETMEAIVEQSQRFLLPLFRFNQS
Sequence of Exodeoxyribonuclease V (P08394 whole entry): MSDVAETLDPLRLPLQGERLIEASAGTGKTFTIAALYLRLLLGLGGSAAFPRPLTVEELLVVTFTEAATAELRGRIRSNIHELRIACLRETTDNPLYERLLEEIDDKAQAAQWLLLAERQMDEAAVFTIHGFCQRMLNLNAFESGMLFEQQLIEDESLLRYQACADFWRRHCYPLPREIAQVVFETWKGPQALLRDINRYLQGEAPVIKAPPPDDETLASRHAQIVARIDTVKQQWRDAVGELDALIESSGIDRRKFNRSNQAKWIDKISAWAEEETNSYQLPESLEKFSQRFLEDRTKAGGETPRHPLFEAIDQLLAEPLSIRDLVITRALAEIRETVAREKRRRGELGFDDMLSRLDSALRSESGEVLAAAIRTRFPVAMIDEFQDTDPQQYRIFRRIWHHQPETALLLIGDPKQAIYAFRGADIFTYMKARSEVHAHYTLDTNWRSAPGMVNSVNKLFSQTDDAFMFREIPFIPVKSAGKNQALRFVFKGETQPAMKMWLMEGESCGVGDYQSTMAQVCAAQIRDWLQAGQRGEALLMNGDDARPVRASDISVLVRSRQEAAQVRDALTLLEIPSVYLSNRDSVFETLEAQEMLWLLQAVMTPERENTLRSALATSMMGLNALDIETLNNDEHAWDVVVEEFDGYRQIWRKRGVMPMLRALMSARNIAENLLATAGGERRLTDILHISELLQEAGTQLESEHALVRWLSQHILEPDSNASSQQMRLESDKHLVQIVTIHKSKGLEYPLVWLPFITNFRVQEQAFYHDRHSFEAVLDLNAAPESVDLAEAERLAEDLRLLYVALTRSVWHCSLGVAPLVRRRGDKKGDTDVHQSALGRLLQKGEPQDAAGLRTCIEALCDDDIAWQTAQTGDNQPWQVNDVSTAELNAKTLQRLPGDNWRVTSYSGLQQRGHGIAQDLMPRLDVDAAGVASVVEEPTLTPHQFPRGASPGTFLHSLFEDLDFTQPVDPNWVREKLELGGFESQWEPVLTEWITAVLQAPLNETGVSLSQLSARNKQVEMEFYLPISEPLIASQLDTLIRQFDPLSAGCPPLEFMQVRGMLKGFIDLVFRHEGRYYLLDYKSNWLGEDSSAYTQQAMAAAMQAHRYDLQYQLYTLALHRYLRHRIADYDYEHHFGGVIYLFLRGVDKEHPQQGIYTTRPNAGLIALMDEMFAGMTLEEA
Sequence of Nonstructural protein 1 (Q194T2 whole entry): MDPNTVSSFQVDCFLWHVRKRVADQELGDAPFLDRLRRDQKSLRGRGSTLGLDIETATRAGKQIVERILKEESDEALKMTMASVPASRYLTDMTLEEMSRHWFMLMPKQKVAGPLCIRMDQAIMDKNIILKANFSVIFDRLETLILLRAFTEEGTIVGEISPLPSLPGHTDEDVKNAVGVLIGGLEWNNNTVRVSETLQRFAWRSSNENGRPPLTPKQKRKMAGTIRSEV
Sequence of Genome polyprotein (P29990 2492-3391 limits assumed): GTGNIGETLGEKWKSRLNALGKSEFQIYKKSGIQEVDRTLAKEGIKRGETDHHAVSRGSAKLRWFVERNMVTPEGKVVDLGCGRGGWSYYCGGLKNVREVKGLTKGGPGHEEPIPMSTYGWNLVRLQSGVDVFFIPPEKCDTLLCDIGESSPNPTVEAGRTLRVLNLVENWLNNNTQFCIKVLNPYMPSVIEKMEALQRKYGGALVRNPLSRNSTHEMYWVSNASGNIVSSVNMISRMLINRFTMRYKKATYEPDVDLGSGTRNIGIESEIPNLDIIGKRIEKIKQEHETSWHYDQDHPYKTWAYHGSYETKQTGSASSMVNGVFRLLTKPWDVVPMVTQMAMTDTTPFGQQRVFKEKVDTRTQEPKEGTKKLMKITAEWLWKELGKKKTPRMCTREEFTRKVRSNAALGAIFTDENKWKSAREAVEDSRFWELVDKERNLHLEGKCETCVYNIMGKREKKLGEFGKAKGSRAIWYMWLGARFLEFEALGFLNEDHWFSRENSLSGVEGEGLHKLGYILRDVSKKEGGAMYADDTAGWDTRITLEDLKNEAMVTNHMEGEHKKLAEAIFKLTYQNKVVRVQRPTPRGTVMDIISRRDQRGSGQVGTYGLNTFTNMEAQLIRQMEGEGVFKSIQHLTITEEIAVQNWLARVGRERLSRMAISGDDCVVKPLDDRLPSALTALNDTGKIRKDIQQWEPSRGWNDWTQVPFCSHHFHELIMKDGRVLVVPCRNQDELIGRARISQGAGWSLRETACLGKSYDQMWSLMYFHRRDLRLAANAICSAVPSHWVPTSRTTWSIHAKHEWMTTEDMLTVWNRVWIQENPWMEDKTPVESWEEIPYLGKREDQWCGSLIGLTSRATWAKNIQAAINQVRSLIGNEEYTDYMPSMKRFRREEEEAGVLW

## CCOC(=O)C1Nc2ccc(C(=O)O)cc2C2C=CCC12 (configuration not stated)
[1]
  EC50: 20.3 µM (active)
Genome polyprotein
  IC50: 44.9 µM (active)
[2]
  EC50: 38.9 µM (active)
[3]
  IC50: 39 µM (inactive)
[4]
  IC50: > 66.6 µM (inactive)
[5]
  IC50: 305 µM (active)
Vero
  CC50: > 40 µM (active)
[6]
  IC50: > 66 µM (inactive)
[7]
  IC50: > 66 µM (inactive)
ORF 73
  AC50: 42.9 µM (active)

## CCCC(=O)NC(c1ccccc1)c1ccc2cccnc2c1O (configuration not stated)
Cells [8]
  EC50: > 350 µM (not active)
Jurkat [9]
  IC50: 6.27 µM (active)
[10]
  AC50: 2.88 µM (active)
[11]
  EC50: 16.6 µM (inconclusive)
[12]
  EC50: 0.463 µM (active)
Exodeoxyribonuclease V
  IC50: > 119 µM (inactive)
INS1
  AC50: 0.664 µM (active)
Cells [13]
  EC50: 6.78 µM (active)
[14]
  IC50: > 119 µM (inactive)
HEK293 [15]; Homo sapiens, HEK293
  IC50: 13.6 µM (active)
HEK293 [15]; hek293
  IC50: 8.74 µM (active)
[16]
  AC50: 1.89 µM (active)
HEK293 [17]
  IC50: 10.5 µM (active)
Nonstructural protein 1
  IC50: 21.5 µM (active)
[18]
  EC50: 0.565 µM (active)
HEK293 [19]
  IC50: 7.31 µM (active)
[20]
  AC50: 4.65 µM (active)
[21]
  EC50: > 160 µM (inactive)
Jurkat [22]
  IC50: 3.81 µM (active)
[23]
  EC50: > 180 µM (inactive)
[24]
  EC50: 1.01 µM (active)
[25]
  AC50: 1.99 µM (active)

— ChEMBL document CHEMBL1201862, “PubChem BioAssay data set” (2004)
